# Assay results reported in patent publication US10844077B2, “Thiazolyl-containing compounds for treating proliferative diseases” (Dana-Farber Cancer Institute, Inc., priority 2014, dated 2020).
# Read-outs that look alike come from different tables or passages of the source.
# How the values were obtained:
# Type in all cases: binding
# broad panel of kinases [1] = biological target: broad panel of kinases (Homo sapiens, UniProt Q9BVS4); conditions: RIOK2; 1 μM
# broad panel of kinases [2] = biological target: broad panel of kinases (Homo sapiens, UniProt P49336); conditions: CDK8; 1 μM
# broad panel of kinases [3] = biological target: broad panel of kinases (Homo sapiens, UniProt Q6DT37); conditions: DMPK2; 1 μM
# broad panel of kinases [4] = biological target: broad panel of kinases (Homo sapiens, UniProt P48729); conditions: CSNK1A1; 1 μM
# broad panel of kinases [5] = biological target: broad panel of kinases (Homo sapiens, UniProt P07333); conditions: 1 μM
# broad panel of kinases [6] = biological target: broad panel of kinases (Homo sapiens, UniProt Q9NSY1); conditions: BIKE; 1 μM
# broad panel of kinases [7] = biological target: broad panel of kinases (Homo sapiens, UniProt P57078); conditions: RIPK4; 1 μM
# broad panel of kinases [8] = biological target: broad panel of kinases (Homo sapiens, UniProt Q15375); conditions: EPHA7; 1 μM
# broad panel of kinases [9] = biological target: broad panel of kinases (Homo sapiens, UniProt P29597); conditions: 1 μM
# broad panel of kinases [10] = biological target: broad panel of kinases (Homo sapiens, UniProt Q56UN5); conditions: YSK4; 1 μM
# broad panel of kinases [11] = biological target: broad panel of kinases (Homo sapiens, UniProt O14578); conditions: CIT; 1 μM
# broad panel of kinases [12] = biological target: broad panel of kinases (Homo sapiens, UniProt Q5VT25); conditions: MRCKA; 1 μM
# broad panel of kinases [13] = biological target: broad panel of kinases (Homo sapiens, UniProt O95747); conditions: OSR1; 1 μM
# broad panel of kinases [14] = biological target: broad panel of kinases (Homo sapiens, UniProt Q13554); conditions: CAMK2B; 1 μM
# broad panel of kinases [15] = biological target: broad panel of kinases (Homo sapiens, UniProt O14757); conditions: CHEK1; 1 μM
# broad panel of kinases [16] = biological target: broad panel of kinases (Homo sapiens, UniProt P42685); conditions: FRK; 1 μM
# broad panel of kinases [17] = biological target: broad panel of kinases (Homo sapiens, UniProt Q9H1R3); conditions: MYLK2; 1 μM
# broad panel of kinases [18] = biological target: broad panel of kinases (Homo sapiens, UniProt Q86UE8); conditions: TLK2; 1 μM
# broad panel of kinases [19] = biological target: broad panel of kinases (Homo sapiens, UniProt P00519, F317I); conditions: 1 μM
# broad panel of kinases [20] = biological target: broad panel of kinases (Homo sapiens, UniProt P54760); conditions: EPHB4; 1 μM
# broad panel of kinases [21] = biological target: broad panel of kinases (Homo sapiens, UniProt Q9NRP7); conditions: STK36; 1 μM
# broad panel of kinases [22] = biological target: broad panel of kinases (Homo sapiens, UniProt Q8IU85); conditions: CAMK1D; 1 μM
# broad panel of kinases [23] = biological target: broad panel of kinases (Homo sapiens, UniProt P23443); conditions: S6K1; 1 μM
# broad panel of kinases [24] = biological target: broad panel of kinases (Homo sapiens, UniProt P49674); conditions: CSNK1E; 1 μM
# broad panel of kinases [25] = biological target: broad panel of kinases (Homo sapiens, UniProt Q9UEE5); conditions: DRAK1; 1 μM
# broad panel of kinases [26] = biological target: broad panel of kinases (Homo sapiens, UniProt O43683); conditions: BUB1; 1 μM
# broad panel of kinases [27] = biological target: broad panel of kinases (Homo sapiens, UniProt P46734); conditions: MEK3; 1 μM
# broad panel of kinases [28] = biological target: broad panel of kinases (Homo sapiens, UniProt Q16288); conditions: TRKC; 1 μM
# broad panel of kinases [29] = biological target: broad panel of kinases (Homo sapiens, UniProt Q9Y2K2); conditions: QSK; 1 μM
# broad panel of kinases [30] = biological target: broad panel of kinases (Homo sapiens, UniProt P52564); conditions: MEK6; 1 μM
# broad panel of kinases [31] = biological target: broad panel of kinases (Homo sapiens, UniProt P09769); conditions: FGR; 1 μM
# broad panel of kinases [32] = biological target: broad panel of kinases (Homo sapiens, UniProt P80192); conditions: MLK1; 1 μM
# broad panel of kinases [33] = biological target: broad panel of kinases (Homo sapiens, UniProt P49760); conditions: CLK2; 1 μM
# broad panel of kinases [34] = biological target: broad panel of kinases (Homo sapiens, UniProt P54764); conditions: EPHA4; 1 μM
# broad panel of kinases [35] = biological target: broad panel of kinases (Homo sapiens, UniProt P21127); conditions: CDC2L1; 1 μM
# broad panel of kinases [36] = biological target: broad panel of kinases (Homo sapiens, UniProt Q9UM73); conditions: ALK; 1 μM
# broad panel of kinases [37] = biological target: broad panel of kinases (Homo sapiens, UniProt P53779); conditions: JNK3; 1 μM
# Chain of broad panel of kinases (Homo sapiens, UniProt P07333) (P07333 20-972 limits assumed): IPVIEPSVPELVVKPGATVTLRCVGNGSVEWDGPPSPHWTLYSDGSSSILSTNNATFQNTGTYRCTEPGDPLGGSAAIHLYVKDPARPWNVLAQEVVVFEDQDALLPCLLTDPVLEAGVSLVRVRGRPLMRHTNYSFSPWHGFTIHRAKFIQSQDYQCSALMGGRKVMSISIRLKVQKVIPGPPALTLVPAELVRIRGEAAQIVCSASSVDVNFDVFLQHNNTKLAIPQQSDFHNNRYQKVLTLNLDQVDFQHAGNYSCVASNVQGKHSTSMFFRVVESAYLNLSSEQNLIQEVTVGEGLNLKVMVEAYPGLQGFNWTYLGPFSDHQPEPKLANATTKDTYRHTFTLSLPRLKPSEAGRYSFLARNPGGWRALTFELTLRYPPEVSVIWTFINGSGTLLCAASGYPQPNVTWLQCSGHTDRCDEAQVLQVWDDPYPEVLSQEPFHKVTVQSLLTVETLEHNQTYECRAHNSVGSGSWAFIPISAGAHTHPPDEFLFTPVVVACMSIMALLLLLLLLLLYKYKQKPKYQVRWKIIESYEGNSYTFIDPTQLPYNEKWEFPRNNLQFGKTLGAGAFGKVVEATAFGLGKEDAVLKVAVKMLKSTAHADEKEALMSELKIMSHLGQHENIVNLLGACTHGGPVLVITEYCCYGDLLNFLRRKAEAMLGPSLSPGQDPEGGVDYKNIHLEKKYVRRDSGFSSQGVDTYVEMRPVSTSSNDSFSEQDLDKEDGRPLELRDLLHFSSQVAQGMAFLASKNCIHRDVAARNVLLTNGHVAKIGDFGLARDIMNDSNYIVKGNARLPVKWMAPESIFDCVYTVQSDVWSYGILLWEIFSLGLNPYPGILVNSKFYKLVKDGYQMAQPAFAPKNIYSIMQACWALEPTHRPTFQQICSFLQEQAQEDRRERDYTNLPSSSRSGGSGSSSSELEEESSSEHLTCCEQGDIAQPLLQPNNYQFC
# Chain of broad panel of kinases (Homo sapiens, UniProt P54764) (P54764 20-986 limits assumed): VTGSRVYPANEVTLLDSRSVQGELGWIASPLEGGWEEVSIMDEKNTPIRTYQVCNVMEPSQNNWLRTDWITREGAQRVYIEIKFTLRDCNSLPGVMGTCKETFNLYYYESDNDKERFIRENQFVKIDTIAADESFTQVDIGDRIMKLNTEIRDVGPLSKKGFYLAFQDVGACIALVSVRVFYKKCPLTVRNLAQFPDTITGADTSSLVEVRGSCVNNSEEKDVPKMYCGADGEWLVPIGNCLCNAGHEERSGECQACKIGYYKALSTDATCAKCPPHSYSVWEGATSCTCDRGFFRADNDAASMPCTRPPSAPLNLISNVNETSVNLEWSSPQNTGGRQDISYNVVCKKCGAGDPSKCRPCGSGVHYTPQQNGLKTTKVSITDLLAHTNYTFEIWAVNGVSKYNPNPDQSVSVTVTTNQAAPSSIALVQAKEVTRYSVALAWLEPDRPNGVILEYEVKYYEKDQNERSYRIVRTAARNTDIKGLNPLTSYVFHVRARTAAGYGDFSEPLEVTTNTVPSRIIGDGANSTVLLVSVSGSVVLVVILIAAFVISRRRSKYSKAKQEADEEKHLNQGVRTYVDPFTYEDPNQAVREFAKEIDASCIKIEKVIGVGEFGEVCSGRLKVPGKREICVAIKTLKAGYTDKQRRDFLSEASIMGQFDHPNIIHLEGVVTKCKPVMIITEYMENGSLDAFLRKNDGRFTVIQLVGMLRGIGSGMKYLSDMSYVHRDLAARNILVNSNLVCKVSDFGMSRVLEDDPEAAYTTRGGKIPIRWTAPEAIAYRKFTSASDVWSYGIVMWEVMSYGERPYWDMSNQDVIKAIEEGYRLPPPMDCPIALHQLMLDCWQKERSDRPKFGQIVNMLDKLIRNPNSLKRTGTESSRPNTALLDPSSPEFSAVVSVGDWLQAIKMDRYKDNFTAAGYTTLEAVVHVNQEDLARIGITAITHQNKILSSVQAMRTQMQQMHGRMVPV
# Chain of broad panel of kinases (Homo sapiens, UniProt Q9UM73) (Q9UM73 19-1620 limits assumed): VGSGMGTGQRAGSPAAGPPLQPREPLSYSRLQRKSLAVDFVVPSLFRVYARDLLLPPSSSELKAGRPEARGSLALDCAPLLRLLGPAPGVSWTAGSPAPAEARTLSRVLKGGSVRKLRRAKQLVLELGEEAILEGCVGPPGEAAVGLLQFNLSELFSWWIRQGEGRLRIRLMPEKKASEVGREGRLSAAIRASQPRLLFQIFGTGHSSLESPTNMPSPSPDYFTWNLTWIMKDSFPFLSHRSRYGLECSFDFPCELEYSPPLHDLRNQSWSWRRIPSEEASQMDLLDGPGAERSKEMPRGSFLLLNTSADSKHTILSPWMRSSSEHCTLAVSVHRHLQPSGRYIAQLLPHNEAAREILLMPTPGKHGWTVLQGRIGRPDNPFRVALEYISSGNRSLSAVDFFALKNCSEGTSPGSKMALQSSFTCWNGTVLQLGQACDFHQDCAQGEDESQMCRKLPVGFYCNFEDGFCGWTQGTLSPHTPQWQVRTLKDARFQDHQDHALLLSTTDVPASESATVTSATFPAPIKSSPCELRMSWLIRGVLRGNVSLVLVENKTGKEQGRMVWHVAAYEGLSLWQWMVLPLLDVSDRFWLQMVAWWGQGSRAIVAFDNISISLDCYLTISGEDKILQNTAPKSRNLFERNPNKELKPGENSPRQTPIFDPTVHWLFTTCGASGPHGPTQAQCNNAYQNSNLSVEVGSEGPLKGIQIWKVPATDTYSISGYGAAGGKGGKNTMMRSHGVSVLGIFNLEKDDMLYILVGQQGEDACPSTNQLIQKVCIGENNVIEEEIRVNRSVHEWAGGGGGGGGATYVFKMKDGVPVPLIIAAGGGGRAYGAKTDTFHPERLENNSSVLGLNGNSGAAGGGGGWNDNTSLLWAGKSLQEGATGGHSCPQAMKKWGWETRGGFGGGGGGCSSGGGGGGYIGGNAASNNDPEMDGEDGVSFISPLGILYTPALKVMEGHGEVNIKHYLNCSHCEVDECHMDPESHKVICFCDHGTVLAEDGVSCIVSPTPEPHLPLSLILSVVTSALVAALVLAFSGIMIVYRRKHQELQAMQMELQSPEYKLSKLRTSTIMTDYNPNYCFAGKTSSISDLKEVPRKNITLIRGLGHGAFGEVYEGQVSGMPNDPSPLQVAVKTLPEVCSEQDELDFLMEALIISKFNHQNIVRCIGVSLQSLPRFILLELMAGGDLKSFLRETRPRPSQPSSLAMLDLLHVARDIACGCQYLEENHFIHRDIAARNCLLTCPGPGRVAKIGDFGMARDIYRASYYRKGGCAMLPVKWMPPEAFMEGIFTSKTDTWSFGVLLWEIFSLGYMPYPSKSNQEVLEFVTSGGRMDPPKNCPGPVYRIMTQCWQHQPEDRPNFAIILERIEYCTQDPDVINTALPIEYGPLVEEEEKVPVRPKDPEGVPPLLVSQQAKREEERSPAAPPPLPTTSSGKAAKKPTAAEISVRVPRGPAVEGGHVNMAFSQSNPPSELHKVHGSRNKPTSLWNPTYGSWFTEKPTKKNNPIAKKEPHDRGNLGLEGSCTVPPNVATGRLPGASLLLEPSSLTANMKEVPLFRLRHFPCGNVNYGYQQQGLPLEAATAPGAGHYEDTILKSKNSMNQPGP
# Chain of broad panel of kinases (Homo sapiens, UniProt P09769) (P09769 2-529 limits assumed): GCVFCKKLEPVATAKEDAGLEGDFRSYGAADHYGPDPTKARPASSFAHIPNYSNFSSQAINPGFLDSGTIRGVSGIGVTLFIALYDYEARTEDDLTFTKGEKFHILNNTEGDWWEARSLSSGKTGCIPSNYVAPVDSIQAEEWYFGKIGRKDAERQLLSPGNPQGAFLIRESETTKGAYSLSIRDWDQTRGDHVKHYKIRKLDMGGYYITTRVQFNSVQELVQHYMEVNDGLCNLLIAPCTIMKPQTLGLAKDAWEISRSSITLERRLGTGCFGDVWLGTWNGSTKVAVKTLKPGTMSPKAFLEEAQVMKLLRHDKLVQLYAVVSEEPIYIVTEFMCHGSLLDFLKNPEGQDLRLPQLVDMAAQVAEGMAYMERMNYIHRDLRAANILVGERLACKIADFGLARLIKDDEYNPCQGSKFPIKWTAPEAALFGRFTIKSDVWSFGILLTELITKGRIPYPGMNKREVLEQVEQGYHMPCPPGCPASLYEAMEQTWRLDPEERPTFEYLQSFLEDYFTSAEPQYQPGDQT
# Chain of broad panel of kinases (Homo sapiens, UniProt P48729) (P48729 2-337 limits assumed): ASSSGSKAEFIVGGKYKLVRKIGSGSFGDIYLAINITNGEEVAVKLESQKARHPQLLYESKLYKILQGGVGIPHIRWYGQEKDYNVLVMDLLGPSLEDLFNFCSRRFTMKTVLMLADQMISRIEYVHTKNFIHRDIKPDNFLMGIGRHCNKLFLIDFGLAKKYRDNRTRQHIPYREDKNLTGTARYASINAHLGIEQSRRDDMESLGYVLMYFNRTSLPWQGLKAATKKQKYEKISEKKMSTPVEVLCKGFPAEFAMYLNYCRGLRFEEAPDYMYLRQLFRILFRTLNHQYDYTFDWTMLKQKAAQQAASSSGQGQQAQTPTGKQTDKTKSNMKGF
# Chain of broad panel of kinases (Homo sapiens, UniProt Q9H1R3) (Q9H1R3 2-596 limits assumed): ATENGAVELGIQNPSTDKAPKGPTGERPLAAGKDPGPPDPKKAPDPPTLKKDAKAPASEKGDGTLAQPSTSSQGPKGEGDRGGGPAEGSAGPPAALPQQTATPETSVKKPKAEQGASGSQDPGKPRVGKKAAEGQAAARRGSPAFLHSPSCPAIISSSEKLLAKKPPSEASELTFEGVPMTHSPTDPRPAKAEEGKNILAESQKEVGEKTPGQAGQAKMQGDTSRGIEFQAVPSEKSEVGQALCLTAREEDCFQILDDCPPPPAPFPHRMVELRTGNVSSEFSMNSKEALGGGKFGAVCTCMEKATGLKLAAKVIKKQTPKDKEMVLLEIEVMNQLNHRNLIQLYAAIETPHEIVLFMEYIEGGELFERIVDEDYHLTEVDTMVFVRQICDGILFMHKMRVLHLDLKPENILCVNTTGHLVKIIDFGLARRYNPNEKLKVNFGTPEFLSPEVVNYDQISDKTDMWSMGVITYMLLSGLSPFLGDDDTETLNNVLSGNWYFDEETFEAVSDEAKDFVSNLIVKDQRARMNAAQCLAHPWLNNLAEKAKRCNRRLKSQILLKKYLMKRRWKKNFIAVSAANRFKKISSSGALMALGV
SMILES,percent of control binding remaining (lower = stronger binding) (broad panel of kinases [1]),percent of control binding remaining (lower = stronger binding) (broad panel of kinases [2]),percent of control binding remaining (lower = stronger binding) (broad panel of kinases [3]),percent of control binding remaining (lower = stronger binding) (broad panel of kinases [4]),percent of control binding remaining (lower = stronger binding) (broad panel of kinases [5]; CSF1R-autoinhibited),percent of control binding remaining (lower = stronger binding) (broad panel of kinases [5]; CSF1R),percent of control binding remaining (lower = stronger binding) (broad panel of kinases [6]),percent of control binding remaining (lower = stronger binding) (broad panel of kinases [7]),percent of control binding remaining (lower = stronger binding) (broad panel of kinases [8]),percent of control binding remaining (lower = stronger binding) (broad panel of kinases [9]; TYK2(JH1domain-catalytic)),percent of control binding remaining (lower = stronger binding) (broad panel of kinases [9]; TYK2(JH2domain-pseudokinase)),percent of control binding remaining (lower = stronger binding) (broad panel of kinases [10]),percent of control binding remaining (lower = stronger binding) (broad panel of kinases [11]),percent of control binding remaining (lower = stronger binding) (broad panel of kinases [12]),percent of control binding remaining (lower = stronger binding) (broad panel of kinases [13]),percent of control binding remaining (lower = stronger binding) (broad panel of kinases [14]),percent of control binding remaining (lower = stronger binding) (broad panel of kinases [15]),percent of control binding remaining (lower = stronger binding) (broad panel of kinases [16]),percent of control binding remaining (lower = stronger binding) (broad panel of kinases [17]),percent of control binding remaining (lower = stronger binding) (broad panel of kinases [18]),further results
C=CC(=O)N1CC[C@H](Nc2nc(CN3CCOCC3)cc(Nc3ncc(C(=O)Nc4c(C)cccc4C)s3)n2)C1 [Example I-2],92%,93%,51%,100%,1.4%,2.6%,100%,95%,100%,89%,28%,100%,100%,65%,81%,84%,88%,0.1%,100%,97%,percent of control binding remaining (lower = stronger binding) (broad panel of kinases [19]; ABL1(F317I)-nonphosphorylated): 0.15%; percent of control binding remaining (lower = stronger binding) (broad panel of kinases [19]; ABL1(F317I)-phosphorylated): 5.4%; percent of control binding remaining (lower = stronger binding) (broad panel of kinases [20]): 0%; percent of control binding remaining (lower = stronger binding) (broad panel of kinases [21]): 3.5%; percent of control binding remaining (lower = stronger binding) (broad panel of kinases [22]): 100%; percent of control binding remaining (lower = stronger binding) (broad panel of kinases [23]): 100%; percent of control binding remaining (lower = stronger binding) (broad panel of kinases [24]): 84%; percent of control binding remaining (lower = stronger binding) (broad panel of kinases [25]): 100%; percent of control binding remaining (lower = stronger binding) (broad panel of kinases [26]): 85%; percent of control binding remaining (lower = stronger binding) (broad panel of kinases [27]): 99%; percent of control binding remaining (lower = stronger binding) (broad panel of kinases [28]): 99%; percent of control binding remaining (lower = stronger binding) (broad panel of kinases [29]): 36%; percent of control binding remaining (lower = stronger binding) (broad panel of kinases [30]): 82%; percent of control binding remaining (lower = stronger binding) (broad panel of kinases [31]): 0.1%; percent of control binding remaining (lower = stronger binding) (broad panel of kinases [32]): 89%; percent of control binding remaining (lower = stronger binding) (broad panel of kinases [33]): 100%; percent of control binding remaining (lower = stronger binding) (broad panel of kinases [34]): 0%; percent of control binding remaining (lower = stronger binding) (broad panel of kinases [35]): 88%; percent of control binding remaining (lower = stronger binding) (broad panel of kinases [36]): 97%; percent of control binding remaining (lower = stronger binding) (broad panel of kinases [37]): 97%
C=CC(=O)N1CC[C@H](Nc2nccc(Nc3ncc(C(=O)Nc4c(C)cccc4C)s3)n2)C1 [Example I-3],77%,98%,66%,100%,3.2%,3.3%,90%,100%,100%,91%,26%,100%,88%,88%,98%,81%,84%,0.1%,100%,94%,% change compared to control (broad panel of kinases [19]; ABL1(F317I)-nonphosphorylated): 1.2%; % change compared to control (broad panel of kinases [19]; ABL1(F317I)-phosphorylated): 5.2%; percent of control binding remaining (lower = stronger binding) (broad panel of kinases [20]): 0%; percent of control binding remaining (lower = stronger binding) (broad panel of kinases [21]): 25%; percent of control binding remaining (lower = stronger binding) (broad panel of kinases [22]): 90%; percent of control binding remaining (lower = stronger binding) (broad panel of kinases [23]): 97%; percent of control binding remaining (lower = stronger binding) (broad panel of kinases [24]): 96%; percent of control binding remaining (lower = stronger binding) (broad panel of kinases [25]): 100%; percent of control binding remaining (lower = stronger binding) (broad panel of kinases [26]): 68%; percent of control binding remaining (lower = stronger binding) (broad panel of kinases [27]): 100%; percent of control binding remaining (lower = stronger binding) (broad panel of kinases [28]): 96%; percent of control binding remaining (lower = stronger binding) (broad panel of kinases [29]): 50%; percent of control binding remaining (lower = stronger binding) (broad panel of kinases [30]): 89%; percent of control binding remaining (lower = stronger binding) (broad panel of kinases [31]): 0%; percent of control binding remaining (lower = stronger binding) (broad panel of kinases [32]): 92%; percent of control binding remaining (lower = stronger binding) (broad panel of kinases [33]): 96%; percent of control binding remaining (lower = stronger binding) (broad panel of kinases [34]): 0%; percent of control binding remaining (lower = stronger binding) (broad panel of kinases [35]): 78%; percent of control binding remaining (lower = stronger binding) (broad panel of kinases [36]): 83%; percent of control binding remaining (lower = stronger binding) (broad panel of kinases [37]): 91%
